Measurements as given in US6495587B1, “Tricyclic indole-2-carboxylic acid compound used as NMDA receptor antagonist” (Sumitomo Pharmaceuticals Company, Limited, priority 1999, dated 2002).
Structures can show the parent of a compound that is named as a salt. Where two headings read alike, the source gives them in different places.

How the values were obtained:
[1] = biological target: T1, glycine binding site of the NMDA receptor (rat brain synaptic membrane) (Rattus norvegicus, UniProt P35439); assay: [3H]-DCKA binding test; conditions: 10 nM [3H]-DCKA, 2° C., 10 min, pH 7.4; read-out: IC50, inhibition of [3H]-DCKA binding
T1 construct: A crude rat brain synaptic membrane preparation; from tissue; host or cells: rat brain synaptic membranes (Triton X-100 treated)
Protocol: A crude rat brain synaptic membrane preparation was washed three time with 50 mM Tris acetate buffer (pH 7.4) and centrifuged at 50,000×g for 30 min. The pellets obtained were suspended in 0.32M sucrose solution and stored at −80° C. For binding studies, the frozen suspension was thawed, treated with 0.08-0.10% triton X-100 at 2° C. for 10 min. The membrane suspension was washed twice and centrifuged at 50,000×g for 30 min. The synaptic membrane thus prepared (ca. 100 μg of protein) was incubated with 10 nM [^3H]-5,7-dichlorokynurenic acid (DCKA) and the test compound (10 to 0.1 ng/mL) at 2° C. for 10 min in 50 mM Tris acetate buffer (pH 7.4). The incubation was terminated by suction filtration using Whatman GF/B glass filter. The radioactivity bound to the membrane on the filter was measured by scintillation counting. Non-specific binding was calculated by the radioactivity measured under the incubations in the presence cf 0.1 mM glycine.

[2] = Characteristic moisture absorption (Vapor Sorption Analyzer); type: physicochemical; conditions: 25° C.; for Water taken up by the dehydrated sample: 0% R.H. to 95% R.H. and back to 10% R.H.
Protocol: Characteristic moisture absorption of the crystalline hydrochloride monohydrate [C-5] and the hydrochloride [C-4] which is in the form of an amorphous powder were measured with a Vapor Sorption Analyzer MB300G-3 (VTI Corporation).
In advance of measurement, the weighed samples put in the Analyzer were dehydrated at 60° C. under reduced pressure.

[3] = type: physicochemical; conditions: for HPLC integrated intensity (%) under 75% R.H. / HPLC integrated intensity (%) in a sealed tube: 60° C.
Protocol: The hydrochloride monohydrate [C-5] was kept at a temperature of 60° C., in a sealed tube or under 75% R.H.(relative humidity) for 4 weeks. Thereafter, the remaining amount of the compound was assayed with high performance liquid chromatography (HPLC).

[4] = tested on: tonic convulsions after i.c.v. administration of NMDA; assay: Anti-convulsion test (NMDA i.c.v.); type: in vivo, mice; conditions: 20 min before NMDA 5 nmol i.c.v.
Protocol: Twenty minutes after intravenous administration of the test compound (1 to 10 mg/kg) into each of ten mice tested, NMDA (5 nmol) was administered intracerebroventricularly (i.c.v.). […] The hydrochloride [C-4] at 10 mg/kg i.v. protected 90% of mice from tonic convulsions.

| IC50 [1] [nM] | Water taken up, theoretical weight change for one molecular equivalent ([2]; moist atmosphere) [wt %] | HPLC integrated intensity (%) under 75% R.H. ([3]; 2 weeks) [%] | HPLC integrated intensity (%) under 75% R.H. ([3]; 4 weeks) [%] | HPLC integrated intensity (%) under 75% R.H. ([3]; Initial) [%] | HPLC integrated intensity (%) in a sealed tube ([3]; 2 weeks) [%] | HPLC integrated intensity (%) in a sealed tube ([3]; 4 weeks) [%] | HPLC integrated intensity (%) in a sealed tube ([3]; Initial) [%] | Compound | Water taken up by the dehydrated sample [2] | Increase of impurities or degradation products in HPLC charts [3] | Mice protected from tonic convulsions ([4]; 10 mg/kg i.v., ten mice) [%] | ED50 ([4]; Mus musculus, iv, mice, read-out: ED50, protection from tonic convulsions) [mg/kg] |
| --- | --- | --- | --- | --- | --- | --- | --- | --- | --- | --- | --- | --- |
| 16 | – | – | – | – | – | – | – | C[C@H](Oc1cc(CN)ccc1NC(=O)C[C@@H]1CCc2cc(Cl)cc3[nH]c(C(=O)O)c1c23)C(=O)O [D-2, (3S)-7-Chloro-3-(2-((1S)-1-carboxyethoxy)-4-aminomethylphenyl)aminocarbonylmethyl-1,3,4,5-tetrahydrobenz[c.d]indole-2-carboxylic Acid Hydrochloride, reference compound] | – | – | – | – |
| – | 3.45 | 99.2 | 99.5 | 99.3 | 99.3 | 99.6 | 99.3 | C[C@@H](Oc1cc(CN)ccc1NC(=O)C[C@@H]1CCc2cc(Cl)cc3[nH]c(C(=O)O)c1c23)C(=O)O.Cl.O [C-5] | one | did not show any increase of impurities or degradation products | – | – |
| 1.4 | – | – | – | – | – | – | – | C[C@@H](Oc1cc(CN)ccc1NC(=O)C[C@@H]1CCc2cc(Cl)cc3[nH]c(C(=O)O)c1c23)C(=O)O [C-4, (3S)-7-Chloro-3-(2-((1R)-1-carboxyethoxy)-4-aminomethylphenyl)aminocarbonylmethyl-1,3,4,5-tetrahydrobenz[c.d]indole-2-carboxylic Acid Hydrochloride] | more than 2.5 molecular equivalents of water | – | 90 | 2.3 |
